pEC50: −log10 of the molar value. ≈ marks a conversion by molar mass, not a printed value.
Key:
[1] = test system: Human alphaherpesvirus 1; assay: Antiviral activity against Herpes simplex virus 1 strain F VR-733 infected in African green monkey Vero cells after 3 days by MTT assay; assay type: functional, organism-based; conditions: Human alphaherpesvirus 1, Strain F ATCC VR 733, Vero, 72 h
[2] = test system: Human alphaherpesvirus 2; assay: Antiviral activity against Herpes simplex virus 2 strain MS VR-540 infected in African green monkey Vero cells after 3 days by MTT assay; assay type: functional, organism-based; conditions: Human alphaherpesvirus 2, MS VR-540, Vero, 72 h
[3] = test system: Human alphaherpesvirus 3; assay: Antiviral activity against Varicella-zoster virus Ellen VR-1367 infected in African green monkey Vero cells after 3 days by MTT assay; assay type: functional, organism-based; conditions: Human alphaherpesvirus 3, Ellen VR-1367, Vero, 72 h
[4] = test system: Human betaherpesvirus 5; assay: Antiviral activity against Human cytomegalovirus Davis VR-807 infected in […] after 3 days by MTT assay; assay type: functional, organism-based; conditions: Human betaherpesvirus 5, Davis VR-807, 72 h
[5] = Cytotoxicity against human HEL299 cells after 3 days by MTT assay; assay type: cell-based, HEL 299
[6] = Solubility of compound in double-deionized water after 3 days by LC-MS/MS analysis; assay type: physicochemical

| Compound | pEC50 [1] | pEC50 [2] | pEC50 [3] | pEC50 [4] | CC50 at 72 h [5] [µM] | solubility at 72 h [6] [µg/mL] |
| --- | --- | --- | --- | --- | --- | --- |
| Nc1nc2c(ncn2C[Se]CCO)c(=O)[nH]1 | 5.83 | 5.20 | < 4.00 | < 4.00 | > 100 | 1060 (≈ 3.68 mM) |
| Nc1nc2c(ncn2C[Se]C(CO)CO)c(=O)[nH]1 | < 4.00 | < 4.00 | < 4.00 | 4.27 | > 100 | 2230 (≈ 7.01 mM) |
| Nc1nc2c(ncn2COCCO)c(=O)[nH]1 [ACYCLOVIR] | 6.18 | 5.99 | 5.19 | 4.72 | > 100 | 3920 (≈ 17.4 mM) |
| Nc1nc2c(ncn2COC(CO)CO)c(=O)[nH]1 [GANCICLOVIR] | 6.05 | 5.85 | 4.95 | 5.67 | > 100 | 4960 (≈ 19.4 mM) |

— ChEMBL document CHEMBL3632602, “Selenoacyclovir and Selenoganciclovir: Discovery of a New Template for Antiviral Agents” (J Med Chem, 2015)
